The values below come from patent publication US11135211B2, “Pimavanserin for treating impulse control disorder” (ACADIA Pharmaceuticals Inc., priority 2017, dated 2021).

Molecules are shown by their SMILES.

Data set [1] deals with lean, female, Wistar rats. Put plainly: Binge-eating on chocolate in rats (BED model). It counts as in vivo. The source says: Carbohydrate and fat ‘comfort foods’, with bingeing on chocolate are known to be associated with eating disorders in humans and in rodents.
BED is, for example, to be studied using lean, female, Wistar rats (weight range 200-250 g at the start of the study) from Charles River, UK. Rats are to be contained in a controlled environment and housed in an appropriate way to perform the study, for example singly-housed in polypropylene cages with wire grid floors to enable food intake of each rat to be recorded. […]
Body weight, food and water intake are to be measured each day throughout the study, for example as described in the following: Animals are to be weighed at weekly intervals after arrival. […] The weights of the jars are to be recorded before and after the 2 h test session. […] The body weight of each rat and its food and water intake are to be measured on every morning of the study; readings are to be taken in the final stage of the light phase at ˜09:45 h. […]
During the training period, an extra food jar (along with the jar containing normal chow) containing chocolate are to be added to the cage for 2 hr/day intermittently, for at least three weeks, using the access schedule above. […] The chocolate and chow consumed during this 2 h period are to be measured. […]

For data set [2], the system named is rats with 6-hydroxydopamine (6OHDA)-induced lesions of the dorsolateral striatum (DLS). The experiment in a line: ICSS-mediated probability discounting (risk-taking) in rat model of PD. It counts as in vivo. The note with it: co-administration with pramipexole. The source says: Impulsiveness includes a greater tendency for risk-taking. This tendency can be quantified using probability discounting procedures; a cross-species assessment in which the subject chooses between a small reinforcer (SR) delivered at a high probability, and a large reinforcer (LR) delivered at a low probability. Typically, the subjective value of the LR is discounted when its probability is low, and individuals then select the smaller, yet more certain reinforcer. Those who suffer from ICD are less sensitive to low probabilities than healthy individuals, and they more frequently select the LR even when the odds to obtain the reward are very low (Hendrickson, et al., Effects of mindful eating training on delay and probability discounting for food and money in obese and healthy-weight individuals. Behav. Res. Ther. 51, 399-409, 2013). […]
Rats then will be trained for ICSS followed by probability discounting. […] Pramipexole will be infused for 14 days (optionally a similar time period may be used), during which probability discounting will be assessed each day. Forelimb akinesia will be evaluated before lesion, after lesion, and at various time points during pramipexole administration. […]

Another data set concerns 6-OHDA lesioned rats. Put plainly: Forelimb step task (forelimb akinesia) in 6-OHDA lesioned rats. It counts as in vivo. The settings on record: co-administration with pramipexole. On the procedure:
Male Sprague-Dawley (outbred) rats (250-300 g; Harlan Laboratories, Indianapolis, Ind.) are to be pair-housed under environmentally controlled conditions under a 12 h light/dark cycle (lights on at 07:00); food and water are to be available ad libitum.
6-OHDA lesions will be carried out at described previously (Napier et al., Pramipexole-induced increased probabilistic discounting: comparison between a rodent model of Parkinson's disease and controls. Neuropsychopharmacology 37, 1397-1408, 2012). Prior to inducing lesions, desipramine (obtained from Sigma-Aldrich), a norepinephrine reuptake inhibitor, will be administered (25 mg/kg subcutaneously (sc)) to enhance selectivity of 6OHDA for dopamine neurons. Rats were anesthetized with isoflurane and secured in a stereotaxic frame. […]
Rats then will be trained for ICSS followed by probability discounting. […] Pramipexole will be infused for 14 days (optionally a similar time period may be used), during which probability discounting will be assessed each day. Forelimb akinesia will be evaluated before lesion, after lesion, and at various time points during pramipexole administration. […] Probability discounting will be assessed each day of chronic drug treatment; forelimb akinesia will be evaluated before lesion, after lesion, and at various time points during chronic drug administration.

A further data set concerns PD patients. The note with it: cited from earlier work.

As to `CC(C)COc1ccc(CNC(=O)N(Cc2ccc(F)cc2)C2CCN(C)CC2)cc1` [pimavanserin, N-(1-methylpiperidin-4-yl)-N-(4-fluorophenylmethyl)-N′-(4-(2-methylpropyloxy)phenylmethyl)carbamide], the “consumption of standard laboratory diet during the 2 h binge-eating session” value in data set [1] (compared to vehicle treated control) is given as “no effect”. Moreover, the “consumption of palatable food (chocolate) in 2 h binge-eating session” value in data set [1] (pimavanserin 0.1, 0.5, 1.0, 3.0, 6.0, 10.0 mg/kg po 60 min prior to session) is “decrease the consumption”. For the same compound, the “risk taking behavior in rats receiving pramipexole (proportion of rats selecting LR)” value in data set [2] is on record as “reduced risk taking behavior”. For the same compound, the “motor function in rats receiving pramipexole” value in the data set on 6-OHDA lesioned rats is “did not alter motor function”. In the data set on PD patients, the “hallucinations and delusions associated with PD” value was “control hallucinations and delusions”; the “motor function in PD patients” value is given as “without impacting motor function”.
